Data reported in patent US9643971B2 (GALLEON PHARMACEUTICALS, INC., priority 2013, dated 2017).
Entries after “also recorded” stand apart in the source; their conditions may differ. Counter-ions that a name gives are not always drawn. Like-named read-outs stand apart in the source and are kept apart here. Blank lines part the entries; values can stand above or below the compound they belong to.

What was measured:
[1] = test system: anesthetized rat; experiment: Anesthetized rat spirometry screening assay; type: in vivo
Outline: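 Rats under urethane (1.5 g/kg i.v., after isoflurane induction) with femoral and tracheal cannulas; compounds given as i.v. bolus at 0.1 and 0.3 mg/kg with formulation-matched vehicle. RR, VT and minute volume from pneumotachometer airflow, in 30 s bins over 6 min post-dose; arterial blood gases taken pre- and 6 min post-dose.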

[2] = rat, microsomes
[3] = In vitro metabolic stability in human liver microsomes (HLM); details: for HLM T½: human liver microsomes, 5 μM compound, NADPH, 37° C.; for half-life at 5 μM: both, human
[4] = test system: rats chronically treated with morphine; experiment: Apnea, ventilation and sleep structure in rats chronically treated with morphine (whole-body plethysmography); type: in vivo, Zucker rats; details: oral gavage; for apnea frequency / number of apneas per hr expressed as a percent change from baseline (pre-drug): versus treatment with a vehicle
Description: The objective of this study was to quantify the effects of selected compounds of this invention on apnea, ventilation and sleep structure in a rat model. The study consisted of two treatment conditions: (1) chronic morphine and test compound administered orally, and (2) chronic morphine and oral vehicle.
Adult male lean Zucker rats were anesthetized for electroencephalogram (EEG) and electromyogram (EMG) telemeter implantation. At least one week was permitted post-surgery before animals were used further. Morphine sulfate was added to the drinking water of singly housed rats beginning with 0.1 mg/ml morphine and increasing the concentration in increments, so that a final concentration of 0.6 mg/ml was achieved within 2 weeks. All respiratory measurements were made while animals were unrestrained in whole-body plethysmography chambers to permit animals to sleep and move freely. To avoid eliciting withdrawal, morphine water was continuously available during each plethysmography experiment. Minute volume and the number of central sleep apneas (CSA) were measured during all treatment conditions. A period of at least 1 to 1.5 h was permitted for animals to acclimate to the chamber before data collection began. The biopotential telemeters and their receivers were placed directly under the plethysmographic chambers and were used to continuously to capture EEG, EMG, and body temperature signals. Only data collected between the hours of 10 am to 4:30 pm were used in the final analysis to control for the effects of circadian rhythm on breathing.
Test compound in vehicle or an equivalent volume of vehicle was administered via an oral gavage tube at 12 pm. Data collected between 10 am and 12 pm represented baseline (pre-drug) conditions. Data collected between […] represented post-drug conditions. Analyses of the EEG and EMG waveforms for the purpose of staging sleep-wake behavior in rats as awake, NREM sleep, and REM sleep were based on previous sleep studies involving rodents. Central apneas were defined as a respiratory cycle period that was more than or equal to twice the average cycle period during baseline recordings. Percent time in each sleep-wake state, minute volume, and central sleep apnea counts were compared between treatment groups using a two-way ANOVA (factors: drug treatment and time). Breathing data during wakefulness was not analyzed because movement prevents measurement of accurate volumes when using whole-body plethysmography. When differences were detected with ANOVA, Student-Neuman-Keuls post hoc tests were run for all main effects and interactions. Differences were considered significant when p<0.05. Values are expressed as means±SE.

[5] = in vitro; details: male, rat, microsomes
[6] = In vitro metabolic stability in rat liver microsomes (RLM)
[7] = physchem; details: organic solvent or mixture, thermodynamic from solid
[8] = 2 minute AUC of minute volume increase vs. comparator N-[2,6-di-(n-propylamino)-[1,3]pyrimidin-4-yl]-N,O-dimethyl-hydroxylamine
[9] = peak minute ventilation increase, urethane-anesthetized rat, i.v. bolus, screening doses 0.1 and 0.3 mg/kg

- RLM T½ [2]: 0.567 h
- HLM T½ [3]: 1.52 h
Structure (SMILES): C#CCNc1nc(N(C)OC)nc2c(NCCC)nc(N(C)OC)nc12.Cl [Compound 15a, N^2,N^6-Bis(N-methoxy(N-methyl)amino)-N^4-n-propylamino-N^8-prop-2-ynylamino-pyrimido[5,4-d]pyrimidine hydrochloride]
- AUC MV Inc (2 min) (ratio vs. std*) [1, 8]: 0.00 ratio vs. std
- VE Peak (% Inc.) [1, 9]: 6 % Inc.

Structure (SMILES): CCCNc1nc(NC)c2nc(NCCC)nc(NC)c2n1.Cl [Compound 27a, N^4,N^8-Dimethyl-N^2,N^6-di-n-propyl-pyrimido[5,4-d]pyrimidine-2,4,6,8-tetraamine hydrochloride]
- AUC MV Inc (2 min) (ratio vs. std*) [1, 8]: 1.22 ratio vs. std
- duration of increase in minute ventilation ([1]; anesthetized rat, i.v. bolus): approximately 2 minutes
- effect on blood pressure ([1]; anesthetized rat, i.v. bolus): minimal effects
- effect on minute ventilation above baseline values ([1]; anesthetized rat, i.v. bolus): increase
- effect on pulse rate ([1]; anesthetized rat, i.v. bolus): minimal effects
- effect on respiratory rate ([1]; anesthetized rat, i.v. bolus): stimulatory effects
- dose dependence of effect on minute volume ([1]; based on a two-minute average): dose-dependent effect
- effect compared to a reference compound as measured by area-under-curve ([1]; minute volume, two-minute average): greater effect
- apnea frequency ([4]; hydrochloride): reduced; also recorded: decreased
- number of apneas per hr expressed as a percent change from baseline (pre-drug) ([4]; hydrochloride): reduced; also recorded: decreased
- minute volume compared to a vehicle-treated group ([4]; hydrochloride): did not cause an increase; also recorded: do not cause increases
- number of apneas per hr versus vehicle ([4]; hydrochloride): reduced; also recorded: decreased
- ventilation per unit time compared to vehicle ([4]; hydrochloride): did not cause an increase; also recorded: do not cause an increase
- half-life at 5 μM [5]: 2.27 h
- half-life at 5 μM ([3]; liver microsomes): 2.12 h

- half-life at 5 μM [5]: 1.62 h
- half-life at 5 μM ([3]; liver microsomes): 3.78 h
Structure (SMILES): CCCNc1nc(NCC)nc2c(NCCC)nc(NCC)nc12 [Compound 137a, N^2,N^6-Diethyl-N^4,N^8-di-n-propyl-pyrimido[5,4-d]pyrimidine-2,4,6,8-tetraamine]
- AUC MV Inc (2 min) (ratio vs. std*) [1, 8]: 0.88 ratio vs. std
- minute volume compared to a vehicle-treated group [4]: do not cause increases
- number of apneas per hr versus vehicle [4]: reduced; also recorded: decreased
- ventilation per unit time compared to vehicle [4]: did not cause an increase; also recorded: do not cause an increase
- minute volume compared to a vehicle-treated group ([4]; higher dose): caused an increase
- minute volume compared to a vehicle-treated group ([4]; low dose): did not cause an increase
- apnea frequency [4]: reduced; also recorded: decreased
- number of apneas per hr expressed as a percent change from baseline (pre-drug) [4]: reduced; also recorded: decreased

- melting point: 218 to 220 °C
Structure (SMILES): CCCNc1nc(NC)c2nc(C(=O)O)nc(NC)c2n1 [Compound 108, 4,8-Bis-methylamino-6-n-propylamino-pyrimido[5,4-d]pyrimidine-2-carboxylic acid]
- AUC MV Inc (2 min) (ratio vs. std*) [1, 8]: 0.05 ratio vs. std

Structure (SMILES): CCCNc1nc(NCCC(F)(F)F)nc2c(NCCC)nc(NC)nc12 [Compound 39a, hydrochloride]
- AUC MV Inc (2 min) (ratio vs. std*) [1, 8]: 0.71 ratio vs. std
- half-life at 5 μM ([6]; male, rat, microsomes): 2.57 h
- half-life at 5 μM ([3]; microsomes): 3.97 h

- RLM T½ [2]: 0.15 h
- HLM T½ [3]: 0.35 h
Structure (SMILES): CCCNc1nc(NC)nc2c(NCCC)ncnc12.Cl [Compound 22a, N^2-Methyl-N^4,N^8-di-n-propylpyrimido[5,4-d]primidine-2,4,8-triamine hydrochloride]
- AUC MV Inc (2 min) (ratio vs. std*) [1, 8]: 0.01 ratio vs. std
- VE Peak (% Inc.) [1, 9]: 9 % Inc.

Structure (SMILES): CNc1nc(NCC2CC2)nc2c(NC)nc(NCC3CC3)nc12.Cl [Compound 85a, N^2,N^6-Bis-cyclopropylmethyl-N^4,N^8-dimethyl-pyrimido[5,4-d]pyrimidine-2,4,6,8-tetraamine hydrochloride]
- AUC MV Inc (2 min) (ratio vs. std*) [1, 8]: 0.51 ratio vs. std
- apnea frequency ([4]; hydrochloride): reduced; also recorded: decreased
- number of apneas per hr expressed as a percent change from baseline (pre-drug) ([4]; hydrochloride): reduced; also recorded: decreased
- minute volume compared to a vehicle-treated group ([4]; hydrochloride): did not cause an increase; also recorded: do not cause increases
- number of apneas per hr versus vehicle ([4]; hydrochloride): reduced; also recorded: decreased
- ventilation per unit time compared to vehicle ([4]; hydrochloride): did not cause an increase; also recorded: do not cause an increase
- melting point: 264 to 265 °C
- half-life at 5 μM [5]: 6.43 h
- solubility ([7]; Reflux): > 50 mg/mL
- solubility ([7]; r.t.): < 50 mg/mL
- half-life at 5 μM ([3]; liver microsomes): 6.48 h

Structure (SMILES): CCCNc1nc(N2CCOCC2)nc2c(NCCC)nc(NC)nc12 [Compound 41a, N^2-Methyl-N^4N^8-di-n-propyl-6-(morpholin-4-yl)-pyrimido[5,4-d]pyrimidine-2,4,8-triamine]
- AUC MV Inc (2 min) (ratio vs. std*) ([1]; rat, in vivo): 0.36 ratio vs. std
- VE Peak (% Inc.) ([1]; rat, in vivo): 57 % Inc.
- RLM T½ ([6]; rat liver microsomes, 5 μM compound, NADPH, 37° C.): 1.67 h
- HLM T½ [3]: 3.12 h

- melting point: 210 to 212 °C
- half-life at 5 μM [5]: 5.52 h
- half-life at 5 μM ([3]; liver microsomes): > 8.33 h
Structure (SMILES): CCCNc1nc(NC2CC2)nc2c(NCCC)nc(NC3CC3)nc12 [Compound 138, N^2,N^6-Dicyclopropyl-N^4,N^8-di-n-propyl-pyrimido[5,4-d]pyrimidine-2,4,6,8-tetraamine]
- AUC MV Inc (2 min) (ratio vs. std*) [1, 8]: 0.53 ratio vs. std

- melting point: 208 to 211 °C
- half-life at 5 μM [5]: 6.93 h
- half-life at 5 μM ([3]; liver microsomes): > 8.33 h
Structure (SMILES): CCCNc1nc(NCCC)c2nc(NCCC)nc(NCCC)c2n1.Cl [Compound 6a, N^2,N^4,N^6,N^8-Tetra-n-propyl-pyrimido[5,4-d]pyrimidine-2,4,6,8-tetraamine hydrochloride]
- AUC MV Inc (2 min) (ratio vs. std*) [1, 8]: 0.54 ratio vs. std

Structure (SMILES): CNc1nc(NCC2CC2)nc2c(NC)nc(NCC3CC3)nc12 [Compound 84, N^2,N^6-Bis-cyclopropylmethyl-N^4,N^8-dimethyl-pyrimido[5,4-d]pyrimidine-2,4,6,8-tetraamine]
- melting point: 264 to 268 °C
